Toxic doses and inconclusive results are not listed. No stated cut-off is given here; in the data, active means T/C of 150% or more; inactive means T/C below 125%.
System: L1210 leukemia ip in BDF1 mice, survival T/C
Experiment: NCI In Vivo Anticancer Drug Screen. Data for tumor model L1210 Leukemia (intraperitoneal) in B6D2F1 (BDF1) mice
Conditions: endpoint: mean survival time, higher = longer survival
In short: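 Transplantable tumor model; survival measured in treated vs vehicle control mice. Value = treated/control.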

[1] = dose: 100.0 mg/kg/injection, schedule: Q01DX001 (ip), vehicle: carboxymethylcellulose (CMC)
[2] = dose: 200.0 mg/kg/injection, schedule: Q01DX001 (ip), vehicle: carboxymethylcellulose (CMC)
[3] = dose: 400.0 mg/kg/injection, schedule: Q01DX001 (ip), vehicle: carboxymethylcellulose (CMC)
[4] = dose: 100.0 mg/kg/injection, schedule: Q01DX001 (ip), vehicle: saline
[5] = dose: 200.0 mg/kg/injection, schedule: Q01DX001 (ip), vehicle: saline
[6] = dose: 400.0 mg/kg/injection, schedule: Q01DX001 (ip), vehicle: saline
[7] = dose: 50.0 mg/kg/injection, schedule: Q01DX001 (ip), vehicle: other
[8] = dose: 100.0 mg/kg/injection, schedule: Q04DX003 (ip), vehicle: saline with Tween-80
[9] = dose: 200.0 mg/kg/injection, schedule: Q04DX003 (ip), vehicle: saline with Tween-80
[10] = dose: 100.0 mg/kg/injection, schedule: Q01DX001 (ip), vehicle: other
[11] = dose: 400.0 mg/kg/injection, schedule: Q01DX001 (ip), vehicle: other
[12] = dose: 100.0 mg/kg/injection, schedule: Q01DX009 (ip), vehicle: saline with Tween-80
[13] = dose: 200.0 mg/kg/injection, schedule: Q01DX009 (ip), vehicle: saline with Tween-80
[14] = dose: 50.0 mg/kg/injection, schedule: Q01DX001 (ip), vehicle: Klucel (hydroxypropylcellulose) (HPC)
[15] = dose: 100.0 mg/kg/injection, schedule: Q01DX001 (ip), vehicle: Klucel (hydroxypropylcellulose) (HPC)
[16] = dose: 200.0 mg/kg/injection, schedule: Q01DX001 (ip), vehicle: Klucel (hydroxypropylcellulose) (HPC)
[17] = dose: 100.0 mg/kg/injection, schedule: Q04DX003 (ip), vehicle: saline
[18] = dose: 200.0 mg/kg/injection, schedule: Q04DX003 (ip), vehicle: saline
[19] = dose: 400.0 mg/kg/injection, schedule: Q04DX003 (ip), vehicle: saline
[20] = dose: 100.0 mg/kg/injection, schedule: Q01DX009 (ip), vehicle: Klucel (hydroxypropylcellulose) (HPC)
[21] = dose: 200.0 mg/kg/injection, schedule: Q01DX009 (ip), vehicle: Klucel (hydroxypropylcellulose) (HPC)
[22] = dose: 400.0 mg/kg/injection, schedule: Q01DX009 (ip), vehicle: Klucel (hydroxypropylcellulose) (HPC)

Measured: T/C

COc1ccc(O)c2c1C(=O)c1ccccc1C2=O
inactive: dose: 25.0 mg/kg/injection, schedule: Q01DX009 (ip), vehicle: other 93 % of control | dose: 50.0 mg/kg/injection, schedule: Q01DX009 (ip), vehicle: other 95 % of control | dose: 100.0 mg/kg/injection, schedule: Q01DX009 (ip), vehicle: other 104 % of control | dose: 200.0 mg/kg/injection, schedule: Q01DX009 (ip), vehicle: other 102 % of control | dose: 400.0 mg/kg/injection, schedule: Q01DX009 (ip), vehicle: other 104 % of control

O=[N+]([O-])c1cccc(N(CCF)CCF)c1
inactive: dose: 5.0 mg/kg/injection, schedule: Q01DX001 (ip), vehicle: carboxymethylcellulose (CMC) 103 % of control | dose: 10.0 mg/kg/injection, schedule: Q01DX001 (ip), vehicle: carboxymethylcellulose (CMC) 103 % of control | dose: 20.0 mg/kg/injection, schedule: Q01DX001 (ip), vehicle: carboxymethylcellulose (CMC) 112 % of control

C/C(=N\NC(N)=S)C(C)(C)O
inactive: [1] 110 % of control | [2] 108 % of control | [3] 104 % of control

CC(C)CCOC(OCCC(C)C)OCCC(C)C
inactive: [4] 100 % of control | [5] 97 % of control | [6] 105 % of control

NSc1ccc([N+](=O)[O-])cc1
inactive: dose: 12.5 mg/kg/injection, schedule: Q01DX001 (ip), vehicle: other 102 % of control | dose: 25.0 mg/kg/injection, schedule: Q01DX001 (ip), vehicle: other 97 % of control | [7] 101 % of control | [4] 96 % of control | [5] 97 % of control | [6] 103 % of control

Oc1ccc2ccccc2c1Sc1c(O)ccc2ccccc12
inactive: [8] 101 % of control | [9] 101 % of control

O=C1CCSc2ccccc21
inactive: dose: 37.5 mg/kg/injection, schedule: Q01DX009 (ip), vehicle: saline 102 % of control | dose: 75.0 mg/kg/injection, schedule: Q01DX009 (ip), vehicle: saline 111 % of control | [1] 92 % of control | dose: 100.0 mg/kg/injection, schedule: Q01DX009 (ip), vehicle: saline sonified 105 % of control | dose: 100.0 mg/kg/injection, schedule: Q04DX003 (ip), vehicle: other 96 % of control | dose: 150.0 mg/kg/injection, schedule: Q01DX009 (ip), vehicle: saline 104 % of control | [2] 106 % of control | dose: 200.0 mg/kg/injection, schedule: Q01DX009 (ip), vehicle: saline sonified 93 % of control | dose: 200.0 mg/kg/injection, schedule: Q04DX003 (ip), vehicle: other 96 % of control | [3] 111 % of control | dose: 400.0 mg/kg/injection, schedule: Q01DX009 (ip), vehicle: saline sonified 97 % of control | dose: 400.0 mg/kg/injection, schedule: Q04DX003 (ip), vehicle: other 102 % of control

O=C(CCCC(=O)N/N=C/c1cccc(Cl)c1)N/N=C\c1cccc(Cl)c1
inactive: [7] 90 % of control | [10] 93 % of control | [11] 88 % of control

C=CCc1ccccc1OC
inactive: [12] 102 % of control | [13] 95 % of control

O=C(C[n+]1cccc(Cl)c1)c1ccccc1
inactive: dose: 0.5 mg/kg/injection, schedule: Q04DX003 (ip), vehicle: saline 113 % of control | dose: 1.0 mg/kg/injection, schedule: Q04DX003 (ip), vehicle: saline 105 % of control | dose: 2.0 mg/kg/injection, schedule: Q04DX003 (ip), vehicle: saline 102 % of control

CCCCCCCCCCCCCCCOc1cccc(OCCCCCCCCCCCCCCC)c1
inactive: [14] 92 % of control | [15] 92 % of control | [16] 92 % of control

COc1ccc(CN2CCCN(Cc3ccc(OC)cc3OC)C2c2cc(Cl)cc(Cl)c2O)c(OC)c1
inactive: dose: 50.0 mg/kg/injection, schedule: Q01DX001 (ip), vehicle: saline 92 % of control | [4] 97 % of control | [5] 92 % of control | [6] 90 % of control

N#CC1(OC2OC(CO)C(O)C(O)C2O)C=CC(O)C1O (stereo unspecified)
inactive: [17] 98 % of control | [18] 105 % of control | [19] 96 % of control

CCN(CC)C(=O)Cn1cc(F)c(NC(C)=O)nc1=O
inactive: [17] 97 % of control | [18] 101 % of control | [19] 101 % of control

COc1ccccc1-n1c(=O)c(N=Nc2ccccc2C)c(O)n(-c2ccccc2Cl)c1=S
inactive: [14] 107 % of control | [15] 102 % of control | [16] 110 % of control

CC1(CO)C2CCC(CC2)C1CO (stereo unspecified)
inactive: dose: 100.0 mg/kg/injection, schedule: Q04DX003 (ip), vehicle: acetone 98 % of control | dose: 200.0 mg/kg/injection, schedule: Q04DX003 (ip), vehicle: acetone 96 % of control | dose: 400.0 mg/kg/injection, schedule: Q04DX003 (ip), vehicle: acetone 93 % of control

COc1cc([N+](=O)[O-])ccc1NC(=O)c1c(Br)c(Br)c(Br)c(Br)c1C(=O)O
inactive: [20] 101 % of control | [21] 106 % of control | [22] 106 % of control

CC12CCC3C(CCC4C(C)(C(=O)O)CCCC34C)(CC1=O)C2 (stereo unspecified)
inactive: dose: 100.0 mg/kg/injection, schedule: Q01DX001 (ip), vehicle: saline with Tween-80 92 % of control | dose: 200.0 mg/kg/injection, schedule: Q01DX001 (ip), vehicle: saline with Tween-80 95 % of control

O=C(Nc1ccc(Cl)c(Cl)c1)Oc1ccc2ccccc2c1
inactive: [20] 90 % of control | dose: 100.0 mg/kg/injection, schedule: Q04DX003 (ip), vehicle: Klucel (hydroxypropylcellulose) (HPC) 104 % of control | [21] 101 % of control | dose: 200.0 mg/kg/injection, schedule: Q04DX003 (ip), vehicle: Klucel (hydroxypropylcellulose) (HPC) 90 % of control | [22] 95 % of control | dose: 400.0 mg/kg/injection, schedule: Q04DX003 (ip), vehicle: Klucel (hydroxypropylcellulose) (HPC) 90 % of control

O=C(Nc1ccc([N+](=O)[O-])cc1)OCC(COc1ccccc1)OC(=O)Nc1ccc([N+](=O)[O-])cc1 (stereo unspecified)
inactive: [10] 100 % of control | dose: 200.0 mg/kg/injection, schedule: Q01DX001 (ip), vehicle: other 89 % of control | [11] 100 % of control

CC1=NN(c2ccccc2)C(=O)C1C(=O)c1ccccc1 (stereo unspecified)
inactive: dose: 25.0 mg/kg/injection, schedule: Q01DX009 (ip), vehicle: saline with Tween-80 92 % of control | dose: 50.0 mg/kg/injection, schedule: Q01DX009 (ip), vehicle: saline with Tween-80 95 % of control | [8] 94 % of control

CN1CCC2(CC1)SSC1(CCN(C)CC1)S2
inactive: [17] 98 % of control | [18] 98 % of control

O=C(Nc1ccccc1C(F)(F)F)c1ccc(C(=O)Nc2ccccc2C(F)(F)F)cc1
inactive: [12] 90 % of control | [8] 90 % of control | [13] 87 % of control | [9] 90 % of control | dose: 400.0 mg/kg/injection, schedule: Q01DX009 (ip), vehicle: saline with Tween-80 100 % of control | dose: 400.0 mg/kg/injection, schedule: Q04DX003 (ip), vehicle: saline with Tween-80 91 % of control

Source: PubChem BioAssay AID248 (DTP/NCI, 2004)
